Measured values published in PubChem BioAssay (NCI).
Where “and” joins values, the source holds several entries; their conditions need not be identical. Equal entries are not always repeated.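 Cultured in 96-well plates, cells were exposed to test compound for 48 hours across five concentrations. The concentration for 50% growth inhibition is given as GI50. TGI: concentration producing complete growth inhibition.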

Assays:
Assay in all cases: NCI tumour cell line growth inhibition, 48 h
RXF-631 renal = system: RXF-631 renal
DLD-1 colon = system: DLD-1 colon
DMS 114 small cell lung = system: DMS 114 small cell lung
DMS 273 small cell lung = system: DMS 273 small cell lung
M19-MEL melanoma = system: M19-MEL melanoma
HOP-18 NSCLC = system: HOP-18 NSCLC
XF 498 CNS = system: XF 498 CNS
MDA-N = system: MDA-N
KM20L2 colon = system: KM20L2 colon
SN12K1 renal = system: SN12K1 renal

SMILES | TGI (RXF-631 renal) [µM] | TGI (DLD-1 colon) [µM] | TGI (DMS 114 small cell lung) [µM] | TGI (DMS 273 small cell lung) [µM] | TGI (M19-MEL melanoma) [µM] | TGI (HOP-18 NSCLC) [µM] | TGI (XF 498 CNS) [µM] | TGI (MDA-N) [µM] | TGI (KM20L2 colon) [µM] | also measured
CC(C)(C)C(=O)O[C@@H]1COC2C(O)COC21 (stereo not given in full) | > 100 | > 100 | > 100 | > 100 | > 100 | > 100 | > 100 |  |  | 
O=C1c2c(O)cc(O)cc2OC(c2ccc(O)cc2O)C1O (stereo not given) |  |  |  |  |  |  |  | > 100 |  | 
CCc1nc(N)nc(N)c1-c1ccc(NCCc2ccccc2)c([N+](=O)[O-])c1 |  |  |  |  |  |  |  | > 57.5 |  | 
CCC(C(=O)[O-])C(=O)[O-].CCC(C(=O)[O-])C(=O)[O-].N.N.NCCCCCCN.[Pt+4].[Pt+4] |  | 13.9 |  | 16.4 |  | 11.5 |  |  | 29 | GI50 (KM20L2 colon): 15 µM; GI50 (DLD-1 colon): 3.79 µM; GI50 (DMS 273 small cell lung): 8.32 µM; GI50 (HOP-18 NSCLC): 4.92 µM
CCCCCC/C=C\CCCCCCCCCC1=CC(=O)C=C(OC)C1=O |  |  |  |  |  |  |  | 21.8 |  | 
Cc1cc(C)c(S(=O)(=O)ONC(=O)OC(C)(C)C)c(C)c1 | > 100 | > 100 |  | > 100 | > 100 |  | > 100 |  |  | 
Cn1c(=S)c2[nH]c(SCCN3CCCC3)nc2n(C)c1=O |  |  |  |  |  |  |  | > 100 |  | 
COc1cc([C@@H]2c3cc4c(cc3[C@@H](NC(=O)c3cccc(F)c3)C3COC(=O)[C@@H]32)OCO4)cc(OC)c1O (stereo not given in full) |  | 25.4 | 5.2 | 11.3 | 41.4 | > 100 |  |  | 6.89 | 
COc1ccc2c(c1)CCC1=CC3(CCC12C)SCCS3 (stereo not given) |  |  |  |  |  |  |  | 6.36 |  | 
O=C(CC(=O)C1CCOC1=O)C(=O)Nc1ccc(Cl)cc1Cl (stereo not given) |  | > 100 | > 100 | > 100 | > 100 |  | > 100 |  | > 100 | 
NC(=O)/C=C/NC(=O)/C=N\O |  |  |  |  |  |  |  | > 100 |  | 
COc1ccc(/C(=N/NC(N)=O)C(c2ccc(OC)cc2)C2C(=O)Oc3ccccc32)cc1 (stereo not given) | > 100 | > 100 | > 100 | > 100 | > 100 |  | > 100 |  | > 100 | 
COc1ccc(-c2cc(=O)c3c(O)cc(C)cc3o2)cc1OC |  |  |  |  |  |  |  | > 100 |  | 
OC(c1ccccn1)C1CNc2ccccc21 (stereo not given) |  | > 100 | > 100 | > 100 | > 100 |  | > 100 |  | > 100 | 
O=C(O)Cn1c(=O)[nH]c(=O)c2c1ncn2Cc1ccccc1 | > 100 | > 100 | > 100 | > 100 | > 100 |  | > 100 |  | > 100 | 
COc1ccc(C(=O)/C=C/c2ccc(OCC(=O)N3CCN(c4ccccc4)CC3)cc2)cc1 |  | > 100 | > 100 | > 100 | > 100 | > 100 | > 93.9 | > 100 | > 100 | 
CC(=O)NNc1nc(C)c(C(/C=C/c2ccc(Cl)cc2)=N/NC(=O)C[N+](C)(C)C)s1 |  | > 100 | > 100 | > 100 | > 100 | > 100 |  |  | > 100 | 
COC(=O)c1ccc(Cc2ccc(C(=O)OC)o2)o1 | > 378 | > 378 |  | > 378 | > 378 | > 378 |  |  | > 378 | 
CCC[CH2][Sn]([CH2]CCC)([O]C(=O)C1CCC(=O)N1)[O]C(=O)C1CCC(=O)N1 (stereo not given) | 0.297 | 1.52 | 0.367 | 1.16 | 0.824 |  | 0.376 |  | 1.69 | GI50 (KM20L2 colon): 0.446 µM; GI50 (RXF-631 renal): 0.159 µM; GI50 (DLD-1 colon): 0.353 µM; GI50 (DMS 114 small cell lung): 0.168 µM; GI50 (DMS 273 small cell lung): 0.336 µM; GI50 (M19-MEL melanoma): 0.244 µM; GI50 (XF 498 CNS): 0.217 µM
Cc1ccc(C)c(NC(=O)CCc2nc(=S)[nH][nH]2)c1 | > 100 | > 100 | > 100 | > 100 | > 100 | > 100 | > 100 |  | > 100 | 
CCCCCCCCCCCCN(O)C(=O)c1ccccc1 |  | > 100 |  |  | > 100 | > 100 | > 100 |  | > 100 | 

SMILES | TGI (RXF-631 renal) [µM] | TGI (DLD-1 colon) [µM] | TGI (DMS 114 small cell lung) [µM] | TGI (DMS 273 small cell lung) [µM] | TGI (M19-MEL melanoma) [µM] | TGI (HOP-18 NSCLC) [µM] | TGI (XF 498 CNS) [µM] | TGI (MDA-N) [µM] | TGI (KM20L2 colon) [µM] | also measured
COCCOCC(=O)N(CCn1ccc(NC(c2ccccc2)(c2ccccc2)c2ccccc2)nc1=O)CCn1cnc2nc(N)[nH]c(=O)c21 | > 100 | > 100 | > 100 | > 100 |  | > 100 |  |  | > 100 | 
CCc1nc(Cl)nc(Cl)c1Cl |  |  |  |  |  |  |  | 15.2 |  | 
COC1=Nc2ccccc2S(=O)(=O)C=C1 |  |  |  |  |  |  |  | 20.8 |  | 
N#CC1(C=O)c2ccccc2C=CN1C(=O)c1ccccc1 (stereo not given) | > 100 |  | 49 | > 100 | > 100 | > 100 | 69.6 |  | > 100 | 
O=C(NCCCCCCCCNC(=O)c1cccc2ccccc12)c1cccc2ccccc12 | > 82 | > 100 | > 100 | > 100 | > 100 | > 81.4 | 20.9 | > 100 | > 100 | 
COc1ccc(CNc2nc3c(NC(C)=O)cc(C(F)(F)F)cc3nc2-c2ccccc2)cc1OC |  | > 100 | > 100 | > 100 | > 100 |  | > 100 |  | > 100 | 
C[C@H]1C(Oc2ccc(O)cc2)OC2OC3(C)CCC4[C@H](C)CCC1C24OO3 (stereo not given in full) |  |  |  |  |  |  |  | 26.4 |  | GI50 (MDA-N): 11.1 µM
CC(=O)[O-].O=C([CH-]C(=O)c1ccccc1)c1ccccc1.O=C([CH-]C(=O)c1ccccc1)c1ccccc1.[Y+3] |  |  |  |  |  |  |  |  | 26.3 | GI50 (KM20L2 colon): 6.51 µM
CN(C)c1n/c(=N/c2ncn[nH]2)ss1 |  | > 100 | > 100 | > 100 | > 100 | > 100 | > 100 |  | > 100 | 
c1ccc(COCC2OC3c4ccccc4COC3C2OCc2ccccc2)cc1 (stereo not given) | > 100 | > 100 | > 100 | > 100 | > 100 | > 100 |  |  | > 100 | 
Nc1nc(N)c2nc(CNc3ccc(C(=O)NC(CCCNC(=O)c4ccccc4C(=O)O)C(=O)O)cc3)cnc2n1 (stereo not given) |  | > 100 | > 100 | > 100 | > 100 | > 100 | > 100 | > 100 | > 100 | TGI (SN12K1 renal): > 100 µM; GI50 (DMS 114 small cell lung): < 0.01 µM and 0.000327 µM; GI50 (M19-MEL melanoma): 0.122 µM; GI50 (HOP-18 NSCLC): 24.8 µM and 98 µM; GI50 (MDA-N): 0.00127 µM
COC(=O)C(Cc1nc2ccc(Cl)cc2[nH]c1=O)/C(=N/NC(N)=O)C(=O)Nc1ccc(Cl)cc1 (stereo not given) | > 100 |  | > 100 | > 100 | > 100 | > 100 | > 100 |  | > 100 | 
COc1cc(-c2cc(=O)c3cc(C)c(C)c(C(=O)O)c3o2)cc(OC)c1OC | > 100 | > 100 | > 100 | > 100 | > 100 |  | > 100 |  | > 100 | 
Cn1c2cc(O)cc(O)c2c(=O)c2c([N+](=O)[O-])cccc21 | > 100 | > 100 | > 100 | > 100 |  | > 100 |  |  | > 100 | 
CNC1C(O)C(OC2C(N)CC(N)C(OC3OC(C(C)O)C(O)C(O)C3N)C2O)OCC1(C)O (stereo not given) |  |  |  |  |  |  |  | > 100 |  | 
CC/C(C)=C1\OC(=O)C(C)C(O)C(Cc2cccnc2)NC(=O)C(NC(=O)c2ncccc2O)C(C)OC1=O (stereo not given) |  |  |  |  |  |  |  | > 100 |  | 
O=C(NO)C(=O)Nc1ccc(Cl)cc1[N+](=O)[O-] | > 100 | > 100 | > 100 | > 100 | > 100 | > 100 |  |  | > 100 | 
COC12CC(=O)C(C(C)=O)=C(O)C1(C)c1c(OC(C)=O)c(C)c(O)c(C(C)=O)c1O2 (stereo not given) | > 100 |  | > 100 |  | > 100 | 51.9 | 70.7 |  | > 100 | 
COC(OC)[C@@H](C)[C@H](O)[C@](C)(O)C1OC(C)(C)OC(C(C)C=C(C)C)C1C (stereo not given in full) |  | > 100 | > 100 | > 100 | > 100 | > 100 | > 100 |  | > 100 | 
CSc1ccc(/C=C/c2ccnc3ccccc23)cc1 |  |  |  |  |  |  |  | 27 |  | 
